Tested on: MCF7 cells
Test: Caspase activation (FITC-VAD-FMK), Annexin V and propidium iodide staining
Assay type: cell-based, human
Details: 20 μM, 8 h
Description: We began our biological investigations by assaying the cytotoxicity of natural deoxyelephantopin (DEP) and its unnatural analogues in four different cancer cell lines (Fig. 5a, Supplementary Figs 6–8).
Figure 5 Assessing the cytotoxicity of deoxyelephantopin (DEP) and analogues. (a) Cell viability measurements in four different cancer cell lines. Cells were treated with compounds for 3 days, the nuclei were stained with DAPI and counted (EC50 values±s.d. shown; n=3). **P<0.005 and ***P<0.0005 by two-sided Student's t-test. (b) Detection of caspase activation and apoptosis in MCF7 cells using FITC-VAD-FMK fluorescent probe (top) or Annexin V staining (bottom). The cells were treated with 1 μM staurosporine (positive control) or 20 μM deoxyelephantopin for 8 h. Confocal microscopy images are shown. EC50, effector concentration for half-maximum response. Scale bars, 30μm. […]
Biological materials. […] Protein concentration was determined using the Bradford assay (Bio-Rad).
Cell culture and preparation of lysates. […] Cells were lysed by sonication to form cell lysates and protein concentration was determined using the Bradford […]
’ cells/mL and HeLa: 1 ’ cells/mL) in a 96-well plate and allowed to attach overnight. […] Cells were imaged using a SpectraMax i3 plate reader equipped with a SpectraMax MiniMax imaging cytometer (Molecular Devices). […]
Caspase activity labeling for fluorescence cell imaging. […]

## C=C(C)C(=O)O[C@H]1CC2=C[C@@H](C/C(C)=C/[C@H]3OC(=O)C(=C)[C@H]13)OC2=O [deoxyelephantopin]
  cause of cell death (FITC-VAD-FMK, Annexin-V-FLUOS staining): caspase-mediated apoptosis
  necrotic death (propidium iodide staining): did not indicate any significant necrotic death
